Measurements taken from ChEMBL document CHEMBL1144543, “QSAR study of anticoccidial activity for diverse chemical compounds: prediction and experimental assay of trans-2-(2-nitrovinyl)furan” (2007).

Legend:
Type in all cases: functional
Eimeria tenella [1] = test: Anticococcidal activity against Eimeria tenella in Chick assessed as reduction in lesion at 125 ug/ml relative to control; parameters: scale not given: the % may be the effect or the level left
Gallus gallus [2] = species on record: Gallus gallus; test: Increase in weight of Eimeria tenella infected Chick at 125 ug/ml relative to control
Gallus gallus [3] = species on record: Gallus gallus; test: Increase in weight of Eimeria tenella infected Chick at 4 ug/ml relative to control
Eimeria tenella [4] = test: Anticococcidal activity against Eimeria tenella in Chick assessed as reduction in lesion at 4 ug/ml relative to control; parameters: scale not given: the % may be the effect or the level left
Gallus gallus [5] = species on record: Gallus gallus; test: Increase in weight of Eimeria tenella infected Chick at 8 ug/ml relative to control
Eimeria tenella [6] = test: Anticococcidal activity against Eimeria tenella in Chick assessed as reduction in lesion at 2 ug/ml relative to control; parameters: scale not given: the % may be the effect or the level left
Eimeria tenella [7] = test: Anticococcidal activity against Eimeria tenella in Chick assessed as reduction in lesion at 8 ug/ml relative to control; parameters: scale not given: the % may be the effect or the level left
Gallus gallus [8] = species on record: Gallus gallus; test: Increase in weight of Eimeria tenella infected Chick at 2 ug/ml relative to control

| Compound | Activity (Eimeria tenella [1]) [%] | Activity (Gallus gallus [2]) [%] | Activity (Gallus gallus [3]) [%] | Activity (Eimeria tenella [4]) [%] | Activity (Gallus gallus [5]) [%] | Activity (Eimeria tenella [6]) [%] | Activity (Eimeria tenella [7]) [%] | Activity (Gallus gallus [8]) [%] |
| --- | --- | --- | --- | --- | --- | --- | --- | --- |
| CCCc1ncc(C[n+]2ccccc2C)c(N)n1.Cl.[Cl-] [AMPROLIUM] | 60 | 75.19 |  |  |  |  |  |  |
| O=[N+]([O-])/C=C/c1ccco1 |  |  | 86.78 | 67.14 | 83.86 | 58.57 | 72.86 | 80.08 |
